This is an account of results in ChEMBL document CHEMBL1201862, “PubChem BioAssay data set” (2004).

Test [1] addresses T1, Tyrosine-protein phosphatase non-receptor type 7 (Homo sapiens, UniProt P35236).
T1 sequence (P35236 whole entry): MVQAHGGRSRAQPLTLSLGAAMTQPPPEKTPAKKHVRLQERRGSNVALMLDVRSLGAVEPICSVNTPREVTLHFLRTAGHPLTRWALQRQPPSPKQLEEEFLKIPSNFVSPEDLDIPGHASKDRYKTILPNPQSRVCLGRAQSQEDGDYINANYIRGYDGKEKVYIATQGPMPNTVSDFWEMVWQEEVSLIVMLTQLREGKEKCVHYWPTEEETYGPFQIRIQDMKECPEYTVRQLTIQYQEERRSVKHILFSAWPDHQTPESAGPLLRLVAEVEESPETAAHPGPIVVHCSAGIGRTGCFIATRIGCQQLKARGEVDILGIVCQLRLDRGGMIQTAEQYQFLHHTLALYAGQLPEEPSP
Description: inhibition of hematopoietic tyrosine phosphatase HePTP – biochemical, set 2, SAR follow-up (AID 449736). In kind it is functional.

For test [2], the target named is T2, Tyrosine-protein phosphatase non-receptor type 22 (Homo sapiens, UniProt Q9Y2R2).
T2 sequence (Q9Y2R2 whole entry): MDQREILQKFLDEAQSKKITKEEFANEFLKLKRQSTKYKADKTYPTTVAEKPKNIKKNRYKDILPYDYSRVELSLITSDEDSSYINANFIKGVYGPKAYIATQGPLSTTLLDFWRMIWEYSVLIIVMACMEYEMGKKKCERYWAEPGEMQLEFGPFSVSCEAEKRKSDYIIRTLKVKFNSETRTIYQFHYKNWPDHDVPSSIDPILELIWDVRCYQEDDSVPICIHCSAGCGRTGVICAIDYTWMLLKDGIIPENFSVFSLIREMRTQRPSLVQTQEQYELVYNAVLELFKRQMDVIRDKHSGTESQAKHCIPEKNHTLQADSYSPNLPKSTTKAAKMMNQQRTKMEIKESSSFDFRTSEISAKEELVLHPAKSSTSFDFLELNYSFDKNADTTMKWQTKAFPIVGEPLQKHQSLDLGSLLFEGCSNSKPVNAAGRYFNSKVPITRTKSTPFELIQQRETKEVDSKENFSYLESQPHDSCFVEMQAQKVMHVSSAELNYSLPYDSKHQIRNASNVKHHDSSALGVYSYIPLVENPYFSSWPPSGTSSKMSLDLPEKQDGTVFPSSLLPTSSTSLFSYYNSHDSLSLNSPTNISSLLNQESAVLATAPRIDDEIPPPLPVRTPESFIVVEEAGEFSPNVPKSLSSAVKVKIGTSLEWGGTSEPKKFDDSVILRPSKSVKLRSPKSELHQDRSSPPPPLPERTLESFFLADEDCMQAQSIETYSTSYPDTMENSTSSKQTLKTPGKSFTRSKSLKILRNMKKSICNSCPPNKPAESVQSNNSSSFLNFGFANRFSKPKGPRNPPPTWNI
In words: inhibition of lymphoid tyrosine phosphatase LYP – biochemical, pCAP fluorogenic substrate, fluorescence, set 3, SAR follow-up (AID 449727). In kind it is functional.

The target of test [3] is T3, G-protein coupled receptor 35 (Homo sapiens, UniProt Q9HC97). Description: inhibition of zaprinast-stimulated GPR35 beta-arrestin translocation – imaging, U2OS, beta-arrestin-GFP, zaprinast agonist, primary screen (AID 2058).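 Also: antagonist potency meaning inhibition of agonist-induced arrestin redistribution.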 Format: functional.
Test [4] has as its target G-protein coupled receptor 55 (Homo sapiens, UniProt Q9Y2T6). In words: blockers of GPR55 signalling, imaged – imaging, image-based, counter-screen for GPR35 antagonist project, SAR follow-up (AID 2397). In kind it is functional. Background: Counterscreens check selectivity or assay interference.
The target in test [5] is T2, Tyrosine-protein phosphatase non-receptor type 22. In words: SAR LYP1 Fluorescent Assay using OMFP substrate for In Vitro dose response studies - Set 3. [Related pubchem assays (depositor defined):AID1779, AID1784, AID2140, AID2686]. In kind it is functional.
For test [6], the target named is T4, Tyrosine-protein phosphatase non-receptor type 12 (Homo sapiens, UniProt Q05209).
T4 sequence (Q05209 whole entry): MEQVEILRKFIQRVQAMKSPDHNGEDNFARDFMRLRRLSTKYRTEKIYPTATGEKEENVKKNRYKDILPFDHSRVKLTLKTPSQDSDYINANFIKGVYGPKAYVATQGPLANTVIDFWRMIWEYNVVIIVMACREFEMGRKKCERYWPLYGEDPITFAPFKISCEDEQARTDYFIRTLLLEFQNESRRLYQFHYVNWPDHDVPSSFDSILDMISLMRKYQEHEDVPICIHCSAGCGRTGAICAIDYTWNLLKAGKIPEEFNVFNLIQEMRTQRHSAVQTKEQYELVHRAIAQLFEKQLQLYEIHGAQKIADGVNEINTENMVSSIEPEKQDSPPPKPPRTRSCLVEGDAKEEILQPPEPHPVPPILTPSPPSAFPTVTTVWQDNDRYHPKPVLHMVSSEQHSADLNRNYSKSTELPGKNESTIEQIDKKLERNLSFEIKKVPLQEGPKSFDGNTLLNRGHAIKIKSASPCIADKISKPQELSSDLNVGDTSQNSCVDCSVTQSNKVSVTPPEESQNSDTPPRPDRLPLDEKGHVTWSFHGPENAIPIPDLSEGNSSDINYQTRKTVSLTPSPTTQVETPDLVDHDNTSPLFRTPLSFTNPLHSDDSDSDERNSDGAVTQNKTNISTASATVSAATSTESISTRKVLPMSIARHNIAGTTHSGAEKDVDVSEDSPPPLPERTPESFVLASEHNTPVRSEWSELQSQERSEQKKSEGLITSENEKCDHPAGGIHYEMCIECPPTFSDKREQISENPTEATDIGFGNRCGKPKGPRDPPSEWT
Description: SAR Selectivity Analysis of small molecule inhibitors of PEST using pCAP in a fluorescence assay. [Related pubchem assays (depositor defined):AID1779, AID1784, AID2135]. In kind it is functional.

Test [7] addresses T3, G-protein coupled receptor 35. In words: SAR Analysis for the identification of Selective Antagonists of ERK1/2 Activity in GPR35-Overexpressing U2OS Cells. [Related pubchem assays: 2079, 2058 ]. In kind it is functional, cell-based.
The target in test [8] is Sphingosine 1-phosphate receptor 2 (Homo sapiens, UniProt O95136). Description: Late stage counterscreen assay for S1P4 antagonists: Fluorescence dose response cell-based screening assay for antagonists of the Sphingosine 1-Phosphate Receptor 2 (S1P2). [Related pubchem assays (depositor defined):AID1510, AID1524, AID1692, AID1853, AID2332, AID489009, AID489017]. Format: functional.

In test [9] the target is Sphingosine 1-phosphate receptor 5 (Homo sapiens, UniProt Q9H228). Description: Late stage counterscreen assay for S1P4 antagonists: Fluorescence dose response cell-based screening assay for antagonists of the Sphingosine 1-Phosphate Receptor 5 (S1P5). [Related pubchem assays (depositor defined):AID1510, AID1524, AID1692, AID1853, AID2332, AID489009, AID489017]. In kind it is functional.

Test [10] addresses Sphingosine 1-phosphate receptor 3 (Homo sapiens, UniProt Q99500). Description: Late stage counterscreen assay for S1P4 antagonists: Fluorescence dose response cell-based screening assay for antagonists of the Sphingosine 1-Phosphate Receptor 3 (S1P3). [Related pubchem assays (depositor defined):AID1510, AID1524, AID1692, AID1853, AID2332, AID489009, AID489017]. Format: functional.

Test [11] addresses T5, Sphingosine 1-phosphate receptor 4 (Homo sapiens, UniProt O95977).
T5 sequence (O95977 whole entry): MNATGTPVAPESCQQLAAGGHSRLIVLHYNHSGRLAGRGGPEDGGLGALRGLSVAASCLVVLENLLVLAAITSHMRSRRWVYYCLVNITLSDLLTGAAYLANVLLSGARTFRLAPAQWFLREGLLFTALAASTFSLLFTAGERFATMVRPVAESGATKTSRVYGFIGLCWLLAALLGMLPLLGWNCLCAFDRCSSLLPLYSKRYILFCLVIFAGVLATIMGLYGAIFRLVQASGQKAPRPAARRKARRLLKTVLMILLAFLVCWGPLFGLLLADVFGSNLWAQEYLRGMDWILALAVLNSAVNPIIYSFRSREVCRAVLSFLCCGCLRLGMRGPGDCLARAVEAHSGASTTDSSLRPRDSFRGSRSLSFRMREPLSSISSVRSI
In words: potency of S1P4 blockers – cell-based, fluorescence, synthesized analogues, late-stage follow-up (AID 2346). In kind it is functional.

The target of test [12] is Sphingosine 1-phosphate receptor 1 (Homo sapiens, UniProt P21453). Description: Late stage counterscreen assay for S1P4 antagonists: Fluorescence dose response cell-based screening assay for antagonists of the Sphingosine 1-Phosphate Receptor 1 (S1P1). [Related pubchem assays (depositor defined):AID1510, AID1524, AID1692, AID1853, AID2332, AID489009, AID489017]. In kind it is functional.

In test [13] the target is T6, Voltage-gated N-type calcium channel alpha-1B subunit/Amyloid beta A4 precursor protein-binding family A member 1 (Homo sapiens, UniProt Q00975+Q02410). Description: disruptors of Mint-PDZ/N-type channel peptide interaction – biochemical, HTRF, SAR follow-up (AID 2489). Format: functional.
For test [14], the target named is T6, Voltage-gated N-type calcium channel alpha-1B subunit/Amyloid beta A4 precursor protein-binding family A member 1. In words: disruptors of Mint-PDZ/N-type channel peptide interaction – biochemical, HTRF, set 2, SAR follow-up (AID 434980). Format: functional. Background: TR-FRET usually uses a lanthanide donor and a delayed reading to cut background.
A further test concerns the target SUMO E1/E2 (Homo sapiens, UniProt P63279+Q9UBE0+Q9UBT2). Description: SAR analysis of SUMOylation using HTRF in an in-Vitro dose response assay. [Related pubchem assays (depositor defined):AID2006, AID2011, AID2018, AID2069, AID2658]. Format: functional.
The target in test [15] is Lysine-specific demethylase 4C (Homo sapiens, UniProt Q9H3R0). In words: inhibition of JMJD2C H3K9me3 demethylation – biochemical, DELFIA europium, cherry-picked samples, dose response (AID 488835). Format: functional.
Test [16] is described as follows: THP-1 cell cytotoxicity, dose response, cytotoxicity control for non-replicating M. tuberculosis project (AID 489025). In kind it is functional.
In test [17] the test system is BJ. Description: BJ-TERT fibroblast viability loss – cell-based, RAS-independent, luminescence, dose response (AID 1933). Particulars: Homo sapiens. In kind it is functional.
The nature of test [18]: DRD fibroblast viability loss – cell-based, non-viral oncogenic, luminescence, dose response (AID 1934). Particulars: Homo sapiens. Format: functional.
The nature of another test: cells. Format: functional.
Test [19] is described as follows: Vero E6 cell cytotoxicity, dose response, cytotoxicity control for non-replicating M. tuberculosis project, secondary assay (AID 492998). In kind it is functional, VeroE6. Particulars: Vero C1008.
In test [20] the test system is BJ. Description: cells. As to conditions: Homo sapiens. In kind it is functional, cell-based.
Test [21] addresses Lysine-specific demethylase 4A (Homo sapiens, UniProt O75164). Description: inhibition of JMJD2A H3K9me3 demethylation – biochemical, DELFIA europium, cherry-picked samples, selectivity assay for GASC-1 inhibitor project, dose response (AID 488840).
Test [22] deals with BJ. Description: BJ-TERT-LT-ST fibroblast viability loss – cell-based, RAS-independent, luminescence, dose response (AID 1935).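 Also: BJ fibroblasts immortalized with TERT plus LT and ST oncogenes.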 As to conditions: Homo sapiens. Format: functional.
For a further test, the system named is INS1. Description: INS-1E survival protection against cytokine death – cell-based, luminescence, retest, dose response (AID 449756).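 Also: cell death triggered by IL-1 beta plus TNF-alpha plus IFN-gamma mixture; protective hits raise ATP signal compared with cytokine alone wells.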 Format: functional. As to conditions: Rattus norvegicus.
Test [23] in a line: microbe, parasite or virus in culture. In kind it is functional. Particulars: Mycobacterium tuberculosis.
The target in a further test is Nonstructural protein 1 (Influenza A virus, UniProt Q194T2). In kind it is functional, Influenza A virus (A/California/07/2009(H1N1)).

Calls of active or inactive are those of the source.

T6 sequence (Q00975 whole entry): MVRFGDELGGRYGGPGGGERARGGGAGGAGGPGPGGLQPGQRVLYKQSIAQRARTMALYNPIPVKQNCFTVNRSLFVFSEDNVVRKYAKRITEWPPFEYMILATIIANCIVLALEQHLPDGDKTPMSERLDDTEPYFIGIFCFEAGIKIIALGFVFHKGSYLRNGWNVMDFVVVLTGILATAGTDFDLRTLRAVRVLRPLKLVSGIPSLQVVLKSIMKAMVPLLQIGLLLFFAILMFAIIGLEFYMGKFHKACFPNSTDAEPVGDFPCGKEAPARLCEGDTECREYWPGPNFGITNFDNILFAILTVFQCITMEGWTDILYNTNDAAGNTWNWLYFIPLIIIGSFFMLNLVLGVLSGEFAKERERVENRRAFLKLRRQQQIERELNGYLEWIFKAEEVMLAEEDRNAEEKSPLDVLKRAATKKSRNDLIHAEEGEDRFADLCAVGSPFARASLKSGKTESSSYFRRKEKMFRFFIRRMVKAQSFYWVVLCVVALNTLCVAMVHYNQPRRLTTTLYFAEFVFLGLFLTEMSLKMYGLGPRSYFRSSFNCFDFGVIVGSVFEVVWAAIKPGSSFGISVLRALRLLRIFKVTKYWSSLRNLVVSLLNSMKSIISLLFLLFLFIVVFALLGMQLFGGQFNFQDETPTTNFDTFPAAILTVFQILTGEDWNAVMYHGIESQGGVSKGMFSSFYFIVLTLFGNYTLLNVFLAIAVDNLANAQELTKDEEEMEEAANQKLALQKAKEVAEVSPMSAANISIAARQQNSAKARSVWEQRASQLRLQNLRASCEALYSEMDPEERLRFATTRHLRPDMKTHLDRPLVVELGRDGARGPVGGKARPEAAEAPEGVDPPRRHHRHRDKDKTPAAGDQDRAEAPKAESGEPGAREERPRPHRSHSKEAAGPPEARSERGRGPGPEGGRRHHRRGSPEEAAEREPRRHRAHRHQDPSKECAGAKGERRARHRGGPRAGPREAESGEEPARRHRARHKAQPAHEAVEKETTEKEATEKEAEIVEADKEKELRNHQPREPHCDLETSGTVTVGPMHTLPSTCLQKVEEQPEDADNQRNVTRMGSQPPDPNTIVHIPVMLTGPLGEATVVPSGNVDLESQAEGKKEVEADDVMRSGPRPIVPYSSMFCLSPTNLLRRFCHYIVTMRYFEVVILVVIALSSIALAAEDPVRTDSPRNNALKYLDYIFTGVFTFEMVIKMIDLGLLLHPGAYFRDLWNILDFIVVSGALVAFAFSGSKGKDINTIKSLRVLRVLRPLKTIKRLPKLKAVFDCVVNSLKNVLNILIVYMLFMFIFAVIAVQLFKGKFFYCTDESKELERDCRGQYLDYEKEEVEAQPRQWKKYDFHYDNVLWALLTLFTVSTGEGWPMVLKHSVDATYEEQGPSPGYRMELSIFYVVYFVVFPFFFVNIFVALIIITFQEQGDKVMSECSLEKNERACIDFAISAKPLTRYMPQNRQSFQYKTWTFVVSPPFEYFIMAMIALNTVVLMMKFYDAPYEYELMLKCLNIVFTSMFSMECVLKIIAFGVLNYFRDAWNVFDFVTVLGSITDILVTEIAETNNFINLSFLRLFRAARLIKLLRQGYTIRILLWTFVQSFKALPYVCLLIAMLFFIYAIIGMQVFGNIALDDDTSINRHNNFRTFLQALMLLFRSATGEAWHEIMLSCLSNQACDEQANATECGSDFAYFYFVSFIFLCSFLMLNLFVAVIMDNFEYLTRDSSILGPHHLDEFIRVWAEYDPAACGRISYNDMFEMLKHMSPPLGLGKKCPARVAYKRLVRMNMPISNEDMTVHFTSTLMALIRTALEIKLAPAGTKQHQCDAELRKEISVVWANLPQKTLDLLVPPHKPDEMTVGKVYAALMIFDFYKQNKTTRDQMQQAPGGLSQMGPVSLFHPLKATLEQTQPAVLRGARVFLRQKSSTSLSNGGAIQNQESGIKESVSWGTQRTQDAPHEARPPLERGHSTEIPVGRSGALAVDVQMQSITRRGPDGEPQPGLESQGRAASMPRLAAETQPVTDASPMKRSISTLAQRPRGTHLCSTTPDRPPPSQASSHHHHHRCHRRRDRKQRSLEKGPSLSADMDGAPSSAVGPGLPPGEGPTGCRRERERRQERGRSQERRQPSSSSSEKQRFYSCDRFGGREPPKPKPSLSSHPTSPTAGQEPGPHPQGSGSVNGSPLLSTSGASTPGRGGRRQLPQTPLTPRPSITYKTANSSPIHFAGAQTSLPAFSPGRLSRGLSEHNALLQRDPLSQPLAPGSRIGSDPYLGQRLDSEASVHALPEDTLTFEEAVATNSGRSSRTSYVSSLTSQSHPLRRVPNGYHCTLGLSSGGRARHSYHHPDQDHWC
T6 sequence (Q02410 whole entry): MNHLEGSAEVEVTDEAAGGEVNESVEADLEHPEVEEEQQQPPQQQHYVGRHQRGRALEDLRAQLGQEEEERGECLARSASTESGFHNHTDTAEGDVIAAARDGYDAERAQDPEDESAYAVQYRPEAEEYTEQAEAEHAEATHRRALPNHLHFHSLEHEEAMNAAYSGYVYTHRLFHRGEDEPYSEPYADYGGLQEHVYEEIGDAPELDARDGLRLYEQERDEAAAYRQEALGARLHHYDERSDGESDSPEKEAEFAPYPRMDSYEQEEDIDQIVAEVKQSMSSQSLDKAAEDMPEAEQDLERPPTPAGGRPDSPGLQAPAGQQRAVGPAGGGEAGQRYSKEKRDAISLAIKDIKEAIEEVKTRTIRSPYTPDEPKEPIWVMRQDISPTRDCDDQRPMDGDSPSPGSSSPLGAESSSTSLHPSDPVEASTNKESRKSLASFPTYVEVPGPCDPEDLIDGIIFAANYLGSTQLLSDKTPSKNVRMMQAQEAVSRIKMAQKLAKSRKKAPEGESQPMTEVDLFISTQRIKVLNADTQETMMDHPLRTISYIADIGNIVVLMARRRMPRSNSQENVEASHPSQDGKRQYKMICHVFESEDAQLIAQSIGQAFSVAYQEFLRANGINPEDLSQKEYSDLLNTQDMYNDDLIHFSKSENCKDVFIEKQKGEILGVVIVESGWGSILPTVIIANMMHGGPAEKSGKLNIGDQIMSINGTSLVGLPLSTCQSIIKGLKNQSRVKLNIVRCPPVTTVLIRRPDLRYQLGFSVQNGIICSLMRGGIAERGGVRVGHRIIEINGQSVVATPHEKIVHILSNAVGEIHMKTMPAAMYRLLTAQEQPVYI
T3 sequence (Q9HC97 whole entry): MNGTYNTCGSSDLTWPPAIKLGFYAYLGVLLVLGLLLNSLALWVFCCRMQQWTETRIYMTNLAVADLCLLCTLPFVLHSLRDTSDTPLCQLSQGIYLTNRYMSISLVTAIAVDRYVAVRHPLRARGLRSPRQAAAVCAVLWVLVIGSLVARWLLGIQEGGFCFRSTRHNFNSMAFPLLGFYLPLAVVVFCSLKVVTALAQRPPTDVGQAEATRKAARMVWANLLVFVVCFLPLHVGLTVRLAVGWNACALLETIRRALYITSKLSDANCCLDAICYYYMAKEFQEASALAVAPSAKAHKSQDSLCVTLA
Sequence of Sphingosine 1-phosphate receptor 5 (Q9H228 whole entry): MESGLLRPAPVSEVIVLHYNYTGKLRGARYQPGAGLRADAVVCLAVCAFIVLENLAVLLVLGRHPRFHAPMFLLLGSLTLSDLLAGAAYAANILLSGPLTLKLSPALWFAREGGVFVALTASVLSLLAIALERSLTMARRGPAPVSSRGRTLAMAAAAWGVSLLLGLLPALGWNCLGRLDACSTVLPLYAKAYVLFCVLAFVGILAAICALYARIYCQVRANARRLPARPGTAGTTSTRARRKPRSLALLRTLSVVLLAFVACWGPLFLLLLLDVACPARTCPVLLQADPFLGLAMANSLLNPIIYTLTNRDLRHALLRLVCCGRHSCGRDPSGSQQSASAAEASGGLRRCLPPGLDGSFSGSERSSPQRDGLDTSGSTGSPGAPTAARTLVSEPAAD
Sequence of Sphingosine 1-phosphate receptor 1 (P21453 whole entry): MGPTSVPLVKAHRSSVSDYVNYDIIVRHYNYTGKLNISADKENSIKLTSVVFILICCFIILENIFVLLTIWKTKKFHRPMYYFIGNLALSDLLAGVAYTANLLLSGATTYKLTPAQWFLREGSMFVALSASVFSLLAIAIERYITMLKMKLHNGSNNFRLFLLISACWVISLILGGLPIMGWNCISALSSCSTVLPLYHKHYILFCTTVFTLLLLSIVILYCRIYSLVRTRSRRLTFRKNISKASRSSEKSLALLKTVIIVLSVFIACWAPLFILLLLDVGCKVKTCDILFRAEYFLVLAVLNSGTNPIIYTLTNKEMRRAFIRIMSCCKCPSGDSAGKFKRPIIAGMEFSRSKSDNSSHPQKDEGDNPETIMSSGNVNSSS
Sequence of Sphingosine 1-phosphate receptor 2 (O95136 whole entry): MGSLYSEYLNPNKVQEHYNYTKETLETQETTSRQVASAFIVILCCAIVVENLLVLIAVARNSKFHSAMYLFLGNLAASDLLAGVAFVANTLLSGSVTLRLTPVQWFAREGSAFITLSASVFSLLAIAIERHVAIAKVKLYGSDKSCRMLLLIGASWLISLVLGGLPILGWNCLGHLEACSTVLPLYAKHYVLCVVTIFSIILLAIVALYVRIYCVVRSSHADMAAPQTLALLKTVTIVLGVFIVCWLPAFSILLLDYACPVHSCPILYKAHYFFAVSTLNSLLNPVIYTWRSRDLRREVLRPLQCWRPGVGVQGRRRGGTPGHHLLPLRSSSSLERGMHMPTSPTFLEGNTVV
Sequence of Sphingosine 1-phosphate receptor 3 (Q99500 whole entry): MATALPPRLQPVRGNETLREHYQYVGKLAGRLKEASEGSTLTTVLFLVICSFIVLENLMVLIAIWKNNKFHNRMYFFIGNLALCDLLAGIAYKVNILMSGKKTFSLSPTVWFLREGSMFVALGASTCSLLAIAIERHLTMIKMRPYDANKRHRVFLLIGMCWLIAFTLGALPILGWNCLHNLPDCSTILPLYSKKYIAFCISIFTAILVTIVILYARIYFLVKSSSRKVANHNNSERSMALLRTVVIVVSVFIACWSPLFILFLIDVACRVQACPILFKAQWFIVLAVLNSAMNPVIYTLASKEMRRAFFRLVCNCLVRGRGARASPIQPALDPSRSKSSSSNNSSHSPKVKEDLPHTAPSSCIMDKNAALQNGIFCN

A word on the IC50: it is the concentration that inhibits the measured activity by half. As for `O=C(CCCN1C(=O)/C(=C\c2ccccc2)SC1=S)Nc1ccc(C(=O)O)cc1`, the half-inhibitory concentration (IC50) in [1] was 1.89 µM (active); in test [2], 79.5 µM (active); in test [3], 1.16 µM (active); in test [4], > 32 µM (inactive); in test [5], 72.2 µM (active); in [6] it was 15.8 µM (active). Moreover, the IC50 in test [7] was 3.29 µM (active).

As to `CCc1cccc(C)c1NC(=O)c1ccc(-c2ccccc2Cl)o1`, the IC50 in [8] was > 25 µM (inactive); in test [9], > 25 µM (inactive); in test [10], > 25 µM (inactive); in [11], 0.269 µM (active); in test [12] it was > 25 µM (inactive).

With `CN(Cc1ccc(F)cc1)C(=O)COC(=O)c1cc(-c2ccco2)nc2ccccc12`, the IC50 was 19.1 µM (active) in test [13], 11.5 µM (active) in test [14] and 2.41 µM (active) on SUMO E1/E2.

For orientation: AC50 means the midpoint of the concentration-response curve, whichever way the signal moves. In general, EC50 refers to the concentration needed to bring the measured effect to its halfway point. Consider `N#C/C(N=Nc1ccccc1O)=N\Nc1ccccc1O`, for which the AC50 in [15] is 0.388 µM (active); in [21], 3.37 µM (active); with INS1 it was 2.3 µM (active). Further, the CC50 was 3.15 µM (active) in [16], 7.05 µM (active) in [19] and 4.13 µM (active) in test [23]. Further, the EC50 was 5.98 µM (active) with BJ [17], 8.75 µM (active) in [18], 7.91 µM (active) with BJ [20] and 6.76 µM (active) in the test on BJ [22]. The values for the half-inhibitory concentration (IC50) in the test “cells” and on Nonstructural protein 1 were 1.29 µM (active) and 10.9 µM (active), respectively.
